These results are taken from ChEMBL document CHEMBL3044652, “Synthesis of novel 2-alkyl-4-substituted-amino-pyrazolo[3,4-d]pyrimidines as new leads for anti-bacterial and anti-cancer activity” (2013).

Assay type in all cases: functional
Experiment [1] deals with Escherichia coli. The experiment is described as follows: Antibacterial activity against Escherichia coli NCIM 2803 at 20 ug/ml after 24 hr by agar diffusion method. As to conditions: NCIM 2803, 24 h, read-out: IZ.
Experiment [2] concerns Bacillus subtilis. In words: Antibacterial activity against Bacillus subtilis NCIM 2545 at 20 ug/ml after 24 hr by agar diffusion method. The settings on record: NCIM 2545, 24 h, read-out: IZ. In general terms: Agar diffusion results depend on both activity and mobility in agar.
For experiment [3], the system named is Staphylococcus aureus. The experiment is described as follows: Antibacterial activity against Staphylococcus aureus NCIM 5021 at 20 ug/ml after 24 hr by agar diffusion method. The settings on record: NCIM 5021, 24 h, read-out: IZ.
For experiment [4], the system named is Staphylococcus epidermidis. In words: Antibacterial activity against Staphylococcus epidermidis NCIM 2493 at 20 ug/ml after 24 hr by agar diffusion method. As to conditions: NCIM 2493, 24 h, read-out: IZ.
Experiment [5] relates to Escherichia coli. In words: Antibacterial activity against Escherichia coli NCIM 2803 at 10 ug/ml after 24 hr by agar diffusion method. As to conditions: NCIM 2803, 24 h, read-out: IZ.
The subject of experiment [6] is Bacillus subtilis. In words: Antibacterial activity against Bacillus subtilis NCIM 2545 at 10 ug/ml after 24 hr by agar diffusion method. As to conditions: NCIM 2545, 24 h, read-out: IZ.
Experiment [7] concerns Staphylococcus aureus. The experiment is described as follows: Antibacterial activity against Staphylococcus aureus NCIM 5021 at 10 ug/ml after 24 hr by agar diffusion method. The settings on record: NCIM 5021, 24 h, read-out: IZ.
In experiment [8] the test system is Staphylococcus epidermidis. The experiment is described as follows: Antibacterial activity against Staphylococcus epidermidis NCIM 2493 at 10 ug/ml after 24 hr by agar diffusion method. The settings on record: NCIM 2493, 24 h, read-out: IZ.
The test system of experiment [9] is G-361. In words: Cytotoxicity against Homo sapiens (human) G361 cells assessed as cell growth at 10^-7 M by SRB assay relative to control. As to conditions: read-out: Activity. Background: Sulforhodamine B stains cellular protein and so reports cell mass.
The subject of experiment [10] is G-361. In words: Cytotoxicity against Homo sapiens (human) G361 cells assessed as cell growth at 10^-6 M by SRB assay relative to control. The settings on record: read-out: Activity.
The subject of experiment [11] is G-361. In words: Cytotoxicity against Homo sapiens (human) G361 cells assessed as cell growth at 10^-5 M by SRB assay relative to control. As to conditions: read-out: Activity.
The test system of experiment [12] is G-361. The experiment is described as follows: Cytotoxicity against Homo sapiens (human) G361 cells assessed as cell growth at 10^-4 M by SRB assay relative to control. The settings on record: read-out: Activity.
Experiment [13] concerns G-361. In words: Cytotoxicity against Homo sapiens (human) G361 cells by SRB assay.

Structures are written as SMILES.

In general, GI50 refers to the concentration giving 50% growth inhibition. Lower therefore signals more potent growth inhibition. A word on the LC50: it is the concentration lethal to half of the exposed cells or organisms. As a reminder, the TGI is the concentration at which net growth stops. Lower therefore signals more potent growth arrest. `CCCCNc1nc(C(C)C)nc2c1cnn2-c1ccccc1`: the zone of inhibition at 20 µg/mL in the experiment with Escherichia coli [1] came to 13.3 mm; in the experiment on Bacillus subtilis [2], 12.8 mm; with Staphylococcus aureus [3], 14.4 mm; in experiment [4] it was 14.1 mm. Also, the zone of inhibition at 10 µg/mL amounted to 0 mm in the experiment with Escherichia coli [5], 0 mm in the experiment on Bacillus subtilis [6], 11 mm with Staphylococcus aureus [7] and 11 mm in [8]. The growth at 0.1 µM with G-361 [9] came out at 100%. For the same molecule, the growth at 1 µM in the experiment with G-361 [10] came out at 100%. In the experiment with G-361 [11], the growth at 10 µM stood at 100%. Moreover, the growth at 100 µM with G-361 [12] worked out at 45.4%. The same molecule yielded a GI50 with G-361 [13] greater than 100 µM. Besides, the LC50 with G-361 [13] is greater than 100 µM. The TGI with G-361 [13] is greater than 100 µM.

`CC1(C)S[C@@H]2[C@H](NC(=O)[C@H](N)c3ccc(O)cc3)C(=O)N2[C@H]1C(=O)O` [AMOXICILLIN]: the zone of inhibition at 20 µg/mL turned out to be 18.7 mm with Escherichia coli [1], 19 mm in the experiment with Bacillus subtilis [2], 17.3 mm in the experiment with Staphylococcus aureus [3] and 16.6 mm in [4]. Moreover, the zone of inhibition at 10 µg/mL worked out at 15.5 mm in the experiment with Escherichia coli [5], 16.3 mm in the experiment with Bacillus subtilis [6], 16.6 mm in the experiment with Staphylococcus aureus [7] and 13 mm in experiment [8].

Regarding `CC(C)c1nc(N2CCOCC2)c2cnn(-c3ccccc3)c2n1`, the zone of inhibition at 20 µg/mL in the experiment with Escherichia coli [1] was 14.6 mm; in the experiment with Bacillus subtilis [2], 14.4 mm; with Staphylococcus aureus [3], 14.2 mm; in experiment [4], 14.3 mm. In addition, the zone of inhibition at 10 µg/mL was found to be 10.6 mm in the experiment on Escherichia coli [5], 11.3 mm in the experiment on Bacillus subtilis [6], 10.3 mm with Staphylococcus aureus [7] and 11 mm in experiment [8]. Also, the growth at 0.1 µM with G-361 [9] was 100%. Also, in the experiment with G-361 [10], the growth at 1 µM is 92.5%. For the same molecule, the growth at 10 µM in the experiment with G-361 [11] turned out to be 77.6%. For the same molecule, the growth at 100 µM with G-361 [12] came out at 6.9%. For the same molecule, growth in the experiment with G-361 [13] was halved (GI50) at 2.6 µM. Besides, the LC50 in the experiment on G-361 [13] was greater than 100 µM. For the same molecule, the TGI in the experiment on G-361 [13] was greater than 100 µM.

In the case of `CCCCNc1nc(C)nc2c1cnn2-c1ccccc1`, the zone of inhibition at 20 µg/mL stood at 14.4 mm in the experiment with Escherichia coli [1], 13.8 mm in the experiment on Bacillus subtilis [2], 14.6 mm with Staphylococcus aureus [3] and 14.5 mm in experiment [4]. Moreover, the zone of inhibition at 10 µg/mL with Escherichia coli [5] turned out to be 11 mm; in the experiment with Bacillus subtilis [6], 0 mm; with Staphylococcus aureus [7], 11.3 mm; in [8], 11.1 mm. Moreover, in the experiment on G-361 [9], the growth at 0.1 µM was 100%. The growth at 1 µM with G-361 [10] turned out to be 100%. In addition, in the experiment on G-361 [11], the growth at 10 µM was 100%. Besides, the growth at 100 µM in the experiment with G-361 [12] is -30%. Further, it took 2.4 µM to inhibit growth in the experiment with G-361 [13] by half (GI50). Further, in the experiment with G-361 [13], the LC50 is greater than 100 µM. The TGI in the experiment on G-361 [13] is greater than 100 µM.

Regarding `CCCCNc1nc(CC)nc2c1cnn2-c1ccccc1`, the zone of inhibition at 20 µg/mL was found to be 12.7 mm in the experiment on Escherichia coli [1], 12.8 mm with Bacillus subtilis [2], 13.3 mm in the experiment on Staphylococcus aureus [3] and 13 mm in experiment [4]. For the same molecule, in the experiment with G-361 [9], the growth at 0.1 µM was 100%. Moreover, the growth at 1 µM with G-361 [10] turned out to be 96.5%. For the same molecule, in the experiment on G-361 [11], the growth at 10 µM is 84.8%. For the same molecule, the growth at 100 µM in the experiment on G-361 [12] is -62.5%. Also, halving of growth in the experiment with G-361 [13] (GI50) required 2.02 µM. Besides, the LC50 with G-361 [13] was greater than 100 µM. The same molecule registered a TGI with G-361 [13] of 32 µM.
